Test results: patent US9717745B2, “Pharmaceutical compositions and their use for treatment of cancer and autoimmune diseases” (ZHEJIANG DTRM BIOPHARMA CO. LTD., priority 2015, dated 2017)
Like-named read-outs stand apart in the source and are kept apart here. Marks after values point to notes of the source that are not given here.

Tests used:
WSU-DLCL2 tumor cells [1] = assay: Inhibition of tumor growth in vivo, resistant WSU-DLCL2 xenograft SCID mouse model; parameters: species or system mice; conditions: FIG. 8
Experimental: (§1) Inhibition Study of Tumor Growth In Vivo:
(§2) SCID mice or nude mice (weighing about 18 g at the beginning of the experiment) were randomly divided into groups by the software in order to achieve close average weights between groups and control the bias within the allowable range. The mice were injected BTK cell lines (TMD-8, WSU-DLCL2 and DoHH-2) for tumor formation. Inhibitors were administered orally once or twice a day, a total of 14 days, 21 days or 28 days. Body weights and tumor volume were recorded.
(§3) Xenograft Tumor Models Inoculated with TMD-8, or DoHH2, or WSU-DLCL2 Tumor Cell Lines:
TMD-8 is a sensitive human diffuse large B-cell lymphoma cell line, and DoHH2 is a more difficult to treat human follicular lymphoma cell line, while WSU-DLCL2 is a multi-drug resistant (MDR) human non-Hodgkin's lymphoma cell line.
The TMD-8, DoHH2, WSU-DLCL2 tumor cells were maintained in vitro as a suspension culture in RPMI-1640 medium supplemented with 10% heat inactivated fetal calf serum at 37° C. in an atmosphere of 5% CO2 in air. The tumor cells were routinely subcultured twice weekly. The cells growing in an exponential growth phase were harvested and counted for tumor inoculation. […] Animal body weight and tumor volume were measured every 2- or 3-days throughout the treatment.

[2] = Adjuvant-induced arthritis (AA/AIA) model in female Lewis rats; type: in vivo; conditions: for Paw volume of AA rats model (in words): FIG. 13; for Paw volume (Mean): 11 (3 mg/kg) BID positive control, oral from day 13
Experimental: Adjuvant-Induced Arthritis AA Model:
The combination of Compounds 3 and 14 was evaluated in adjuvant-induced arthritis (AA) model in female Lewis rats. All rats except the normal group were immunized with complete Freund's adjuvant (CFA) subcutaneously at the left hind paw to induce arthritis at day 0. At 6 days post immunization, some rats started to display clinical symptoms of arthritis, e.g. erythema and swelling. […] The treatments were given orally for 3 consecutive weeks. The body weight, paw volume and clinical score were monitored every other day after day 13 throughout the course of the study. At the terminal point, right hind paws were collected for histopathology analysis with H.E. staining.

[3] = Collagen-induced arthritis (CIA) model in male DBA/1 mice; type: in vivo; parameters: Clinical Score (Mean) / Pathological score: Inflammatory cell infiltration / Pathological score: Pannus growth / Pathological score: Cartilage injury / Pathological score: Bone resorption / Pathological score: Total: scale not given here; conditions: for Clinical score of CIA mice model (in words): FIG. 15; for Clinical Score (Mean): Dexamethasone 0.2 mg/kg
Experimental: Collagen-Induced Arthritis (CIA) Model:
The combination of Compounds 3 and 12 was evaluated in collagen induced arthritis (CIA) mouse model in Male DBA/1 mice. The animals were divided into 8 groups, including a normal, a vehicle, […] treatment groups: All animals (except the normal group) were immunized with 200 μg of bovine collagen (type II) on day 0 and day 21. Seven days (day 28) after boosting immunization, animals started to show symptoms of disease with an average clinical score around 1. […] The treatments were given orally for 2 consecutive weeks. Body weight and clinical score were monitored through the study (recorded three times a week started after second immunization). At the end of the study, animals were euthanized and both hind paws were collected for histopathology analysis.

TMD-8 cell line = assay: Inhibition assay of tumor cell activity (cell viability), TMD-8; type: cell-based, human; conditions: 48 hours incubation
Experimental: Inhibition Assay of Tumor Cell Activity:
Tumor cells (TMD-8, DoHH2 and WSU-DLCL2) were transferred and attached to 96-well plates. After one night, blank buffer and selected concentrations (0.01 nM-100 μM) of the test compound solution were added. After 48 hours incubation, CellTiter-Go was added to lyse the cells. Recording luminescent signal and calculate the percent inhibition of cell viability.

TMD-8 tumor cells = assay: Inhibition of tumor growth in vivo, TMD-8 lymphoma xenograft SCID mouse model; conditions: TMD-8 mice model, oral
Experimental: as §1, §2, §3
TMD-8 is a sensitive human diffuse large B-cell lymphoma cell line, and DoHH2 is a more difficult to treat human follicular lymphoma cell line, while WSU-DLCL2 is a multi-drug resistant (MDR) human non-Hodgkin's lymphoma cell line. Drug combination therapies provide better efficacies in all three tumor models than single targeted agent alone.
The TMD-8, DoHH2, WSU-DLCL2 tumor cells were maintained in vitro as a suspension culture in RPMI-1640 medium supplemented with 10% heat inactivated fetal calf serum at 37° C. in an atmosphere of 5% CO2 in air. The tumor cells were routinely subcultured twice weekly. The cells growing in an exponential growth phase were harvested and counted for tumor inoculation. Each mouse was inoculated subcutaneously at the right flank with the tumor cells (10×10^6) in 0.2 ml of PBS with Matrigel (1:1) for tumor development. The treatments were started after the average tumor size reached approximately 100-200 mm^3. Each group consisted of 6-10 tumor-bearing mice. The testing article (vehicle, compound or combination) was orally administrated to the mice according to the predetermined doses for 14-days or 21-days. Animal body weight and tumor volume were measured every 2- or 3-days throughout the treatment.

[4] = Collagen-induced arthritis (CIA) model in male DBA/1 mice; type: in vivo; parameters: scale not given here; conditions: CIA study, 14 alone, 0.15 mg/kg QD, Mean ± SEM
WSU-DLCL2 tumor cells [5] = conditions: oral gavage to mice, 480 mg/kg/day, Knutson et al. 2014, cited from earlier work
[6] = AA study, 11, 3 mg/kg, Mean ± SEM
[7] = CIA study, Left hind paw, Dexamethasone 0.2 mg/kg QD, Mean ± SEM
[8] = CIA study, Right hind paw, Dexamethasone 0.2 mg/kg QD, Mean ± SEM

With `C=CC(=O)N1CC[C@@H](n2nc(-c3ccc(Oc4c(F)c(F)cc(F)c4F)cc3F)c3c(N)ncnc32)C1` [Compound 3, 1-((R)-3-(4-amino-3-(2-fluoro-4-(2,3,5,6-tetrafluorophenoxy)phenyl)-1H-pyrazolo[3,4-d]pyrimidin-1-yl)pyrrolidin-1-yl)prop-2-en-1-one] the “Efficacy in WSU-DLCL2 non-Hodgkin's lymphoma mice model (in words)” value (WSU-DLCL2 tumor cells [1]) was “in line with the efficacy of Ibrutinib”, the “Paw volume of AA rats model (in words)” value [2] was “treatment effects are absent” and the “Clinical score of CIA mice model (in words)” value [3] was “treatment effects are absent”.

In the case of `C[C@@H]1CCN(C(=O)CC#N)C[C@@H]1N(C)c1ncnc2[nH]ccc12` [Compound 11, Tofactinib], the “Inhibition of individual compound on TMD-8 cell line (Inh %) AVG” value (“Inhibition … (Inh %) AVG” for short) (TMD-8 cell line; 0.01 uM) is reported as 6.02%, the “Inhibition … (Inh %) AVG” value (TMD-8 cell line; 0.1 uM) is reported as 1.31% and the “Inhibition … (Inh %) AVG” value (TMD-8 cell line; 1 uM) is reported as 6.66%. The “Pathological score: Bone resorption” value [2, 6] was 0.5 ± 0.22, the “Pathological score: Cartilage injury” value [2, 6] was 0.2 ± 0.20 and the “Pathological score: Inflammatory cell infiltration” value [2, 6] was 1.9 ± 0.18. For the same compound, the “Pathological score: Pannus growth” value [2, 6] was 0.4 ± 0.22, the “Pathological score: Total” value [2, 6] was 3.0 ± 0.73 and the “Paw volume (Mean)” value ([2]; Day 0) was 1.00 mL. The “Paw volume (Mean)” value ([2]; Day 17) was 1.54*** mL, the “Paw volume (Mean)” value ([2]; Day 26) was 1.37*** mL and the “Paw volume (Mean)” value ([2]; Day 28) was 1.33*** mL. The “Paw volume (Mean)” value ([2]; Day 31) was 1.23*** mL and the “Paw volume (Mean)” value ([2]; Day 33) was 1.23*** mL.

For `CO[C@H]1C[C@@H]2CC[C@@H](C)[C@@](O)(O2)C(=O)C(=O)N2CCCC[C@H]2C(=O)O[C@H]([C@H](C)C[C@@H]2CC[C@@H](OCCO)[C@H](OC)C2)CC(=O)[C@H](C)/C=C(\C)[C@@H](O)[C@@H](OC)C(=O)[C@H](C)C[C@H](C)/C=C/C=C/C=C/1C` [Compound 14, Everolimus], the “Days of treatment to tumor disappearance / complete tumor regression” value (TMD-8 tumor cells) was 15 days, the “Tumor disappearance (in words)” value (TMD-8 tumor cells) was “complete disappearance of tumor grafts” and the “Tumor rebound after treatment was stopped” value (TMD-8 tumor cells) was “tumor rebounded”. The “Tumor rebound after treatment was stopped” value (TMD-8 tumor cells; listed as Everolimus) was “quickly rebounded”, the “Pathological score: Bone resorption” value ([2]; AA study, 14 alone, 0.5 mg/kg, Mean ± SEM) was 3.5 ± 0.17 and the “Paw volume of AA rats model (in words)” value [2] was “treatment effects are absent”. The “Clinical score of CIA mice model (in words)” value [3] was “treatment effects are absent”, the “Pathological score: Bone resorption” value ([4]; Left hind paw) was 1.80 ± 0.61 and the “Pathological score: Bone resorption” value ([4]; Right hind paw) was 2.00 ± 0.67.

With `CN(Cc1cnc2nc(N)nc(N)c2n1)c1ccc(C(=O)N[C@@H](CCC(=O)O)C(=O)O)cc1` [Compound 18, Methotrexate] the “Inhibition … (Inh %) AVG” value (TMD-8 cell line; 0.01 uM) was −8.45%, the “Inhibition … (Inh %) AVG” value (TMD-8 cell line; 0.1 uM) was 32.04% and the “Inhibition … (Inh %) AVG” value (TMD-8 cell line; 1 uM) was 39.55%.

With `C[C@@H]1C[C@H]2[C@@H]3CCC4=CC(=O)C=C[C@]4(C)[C@@]3(F)[C@@H](O)C[C@]2(C)[C@@]1(O)C(=O)CO` [Dexamethasone] the “Pathological score: Total” value ([3]; CIA study, Dexamethasone 0.2 mg/kg QD, Mean ± SEM) was 0.00 ± 0.00, the “Pathological score: Bone resorption” value [3, 7] was 0.00 ± 0.00 and the “Pathological score: Cartilage injury” value [3, 7] was 0.00 ± 0.00. For the same compound, the “Pathological score: Inflammatory cell infiltration” value [3, 7] was 0.00 ± 0.00, the “Pathological score: Pannus growth” value [3, 7] was 0.00 ± 0.00 and the “Pathological score: Bone resorption” value [3, 8] was 0.00 ± 0.00. The “Pathological score: Cartilage injury” value [3, 8] was 0.00 ± 0.00, the “Pathological score: Inflammatory cell infiltration” value [3, 8] was 0.00 ± 0.00 and the “Pathological score: Pannus growth” value [3, 8] was 0.00 ± 0.00. For the same compound, the “Clinical Score (Mean)” value ([3]; CIA study, day 21 after first immunization) was 0.00, the “Clinical Score (Mean)” value ([3]; CIA study, day 32) was 0.60*** and the “Clinical Score (Mean)” value ([3]; CIA study, day 39) was 0.40***. For the same compound, the “Clinical Score (Mean)” value ([3]; CIA study, day 42) was 0.20***.

In the case of `CCN(c1cc(-c2ccc(CN3CCOCC3)cc2)cc(C(=O)NCc2c(C)cc(C)[nH]c2=O)c1C)C1CCOCC1` [EPZ-6438], the “Tumor growth inhibition in WSU-DLCL tumor model (in words)” value (WSU-DLCL2 tumor cells [5]) is given as “achieved a similar effect” and the “Tumor growth inhibition in WSU-DLCL tumor model (in words)” value (WSU-DLCL2 tumor cells [5]; listed as EZ-6438) is given as “inhibited tumor growth”.
